Reference: ChEMBL document CHEMBL1147123, “Lipoxygenase inhibitory constituents of the fruits of noni (Morinda citrifolia) collected in Tahiti” (J Nat Prod, 2007)
pIC50: −log10 of the molar value.

Assays:
[1] = target: T1, Polyunsaturated fatty acid 5-lipoxygenase (Homo sapiens, UniProt P09917); experiment: Inhibition of 5LOX in human PBMC by EIA assay
T1 sequence (P09917 whole entry): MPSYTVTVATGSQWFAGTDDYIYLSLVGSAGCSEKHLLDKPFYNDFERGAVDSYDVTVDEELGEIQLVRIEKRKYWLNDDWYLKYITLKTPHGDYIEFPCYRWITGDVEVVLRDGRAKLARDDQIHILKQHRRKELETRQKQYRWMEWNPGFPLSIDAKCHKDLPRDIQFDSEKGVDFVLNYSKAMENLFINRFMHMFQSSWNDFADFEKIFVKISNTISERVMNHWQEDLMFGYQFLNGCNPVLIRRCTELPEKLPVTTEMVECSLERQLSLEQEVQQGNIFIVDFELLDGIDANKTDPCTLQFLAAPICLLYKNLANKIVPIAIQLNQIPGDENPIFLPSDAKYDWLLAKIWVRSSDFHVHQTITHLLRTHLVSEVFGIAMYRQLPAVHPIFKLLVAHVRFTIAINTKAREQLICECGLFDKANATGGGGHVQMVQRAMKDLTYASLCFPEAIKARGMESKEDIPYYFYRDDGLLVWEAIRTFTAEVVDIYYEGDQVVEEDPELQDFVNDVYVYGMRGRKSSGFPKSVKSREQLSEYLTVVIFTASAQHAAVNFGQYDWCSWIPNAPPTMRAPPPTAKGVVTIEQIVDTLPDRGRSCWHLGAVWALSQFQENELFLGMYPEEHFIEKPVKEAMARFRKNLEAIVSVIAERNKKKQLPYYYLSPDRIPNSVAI

[2] = target: T2, Prostaglandin G/H synthase 2 (Homo sapiens, UniProt P35354); experiment: Inhibition of human recombinant COX2 expressed in insect Sf21 cells by EIA assay
T2 sequence (P35354 whole entry): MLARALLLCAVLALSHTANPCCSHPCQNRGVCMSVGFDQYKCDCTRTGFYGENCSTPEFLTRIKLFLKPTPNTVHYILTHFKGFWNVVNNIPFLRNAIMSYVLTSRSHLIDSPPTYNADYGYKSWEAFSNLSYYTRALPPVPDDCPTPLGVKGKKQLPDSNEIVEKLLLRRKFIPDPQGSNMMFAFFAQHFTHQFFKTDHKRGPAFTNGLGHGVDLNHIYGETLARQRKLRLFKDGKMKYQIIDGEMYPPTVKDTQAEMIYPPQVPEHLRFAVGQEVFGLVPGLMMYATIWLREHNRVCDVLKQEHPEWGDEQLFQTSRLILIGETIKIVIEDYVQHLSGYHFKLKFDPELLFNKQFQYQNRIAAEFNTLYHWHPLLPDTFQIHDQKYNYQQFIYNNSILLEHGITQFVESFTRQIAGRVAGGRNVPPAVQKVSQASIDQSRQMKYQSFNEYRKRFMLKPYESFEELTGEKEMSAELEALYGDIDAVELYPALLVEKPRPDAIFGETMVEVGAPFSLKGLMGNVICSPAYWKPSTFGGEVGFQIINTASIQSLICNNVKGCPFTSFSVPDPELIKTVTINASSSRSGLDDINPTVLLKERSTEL

[3] = target: T3, Polyunsaturated fatty acid lipoxygenase ALOX15 (Oryctolagus cuniculus, UniProt P12530); experiment: Inhibition of 15LOX in rabbit reticulocytes by spectrophotometric assay
T3 sequence (P12530 whole entry): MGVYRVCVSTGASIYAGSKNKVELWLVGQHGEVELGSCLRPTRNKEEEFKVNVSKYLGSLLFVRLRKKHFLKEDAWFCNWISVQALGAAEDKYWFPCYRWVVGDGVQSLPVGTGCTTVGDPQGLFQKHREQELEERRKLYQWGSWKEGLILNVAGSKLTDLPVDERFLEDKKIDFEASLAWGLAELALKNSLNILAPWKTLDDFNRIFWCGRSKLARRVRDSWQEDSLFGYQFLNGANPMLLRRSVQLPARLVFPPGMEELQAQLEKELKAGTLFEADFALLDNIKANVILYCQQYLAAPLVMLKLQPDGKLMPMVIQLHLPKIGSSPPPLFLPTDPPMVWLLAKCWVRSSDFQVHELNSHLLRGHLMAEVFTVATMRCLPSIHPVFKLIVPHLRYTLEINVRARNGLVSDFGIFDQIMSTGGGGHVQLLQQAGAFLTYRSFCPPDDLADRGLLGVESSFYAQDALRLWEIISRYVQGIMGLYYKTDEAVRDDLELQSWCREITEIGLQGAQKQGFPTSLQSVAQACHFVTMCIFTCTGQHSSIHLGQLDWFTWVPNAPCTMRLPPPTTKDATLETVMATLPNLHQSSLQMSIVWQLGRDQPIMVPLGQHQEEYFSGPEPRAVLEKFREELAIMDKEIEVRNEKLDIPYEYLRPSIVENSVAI

Row | Structure (SMILES) | pIC50 [1] | pIC50 [2] | pIC50 [3]
1 | COc1cc([C@@H]2OC[C@H]3[C@@H]2CO[C@H]3c2ccc(O)c(OC)c2)ccc1O [(-)-PINORESINOL] | 4.86 |  | 
2 | COc1cc2oc(=O)ccc2cc1O [ISOSCOPOLETIN] | < 4.00 | < 4.00 | 
3 | Oc1ccc([C@@H]2OC[C@@H]3[C@H]2CO[C@H]3c2ccc(O)c(O)c2)cc1O | 5.23 | < 4.00 | 6.28
4 | O=c1c(O)c(-c2ccc(O)cc2)oc2cc(O)cc(O)c12 [KAEMPFEROL] |  | < 4.00 | 
5 | COc1cc2ccc(=O)oc2cc1O [SCOPOLETIN] | < 4.00 | < 4.00 | 
6 | OC[C@@H]1[C@@H]([C@H](O)c2ccc(O)c(O)c2)CO[C@@H]1c1ccc(O)c(O)c1 | 5.04 | 4.13 | 6.12
7 | O=C1O[C@H](c2ccc(O)c(O)c2)[C@H]2CO[C@H](c3ccc(O)c(O)c3)[C@@H]12 | 5.25 | 4.04 | 6.28
